Results from ChEMBL document CHEMBL2176970, “Discovery and optimization of a series of 3-(3-phenyl-3H-imidazo[4,5-b]pyridin-2-yl)pyridin-2-amines: orally bioavailable, selective, and potent ATP-independent Akt inhibitors” (J Med Chem, 2012).
pIC50: −log10 of the molar value. Calls of active or inactive are those of the source. The calls are words filed in the database; no cut-off is given here.

Legend:
[1] = tested on: AN3-CA; assay: Antiproliferative activity against human AN3CA cells after 72 hrs by MTS assay; assay type: functional, cell-based
[2] = target: T1, RAC-alpha serine/threonine-protein kinase (Homo sapiens, UniProt P31749); assay: Inhibition of Akt1 in human A2780 cells assessed as phosphorylation of Akt at S473 after 2 hrs by Western Blot analysis; assay type: cell-based
T1 sequence (P31749 whole entry): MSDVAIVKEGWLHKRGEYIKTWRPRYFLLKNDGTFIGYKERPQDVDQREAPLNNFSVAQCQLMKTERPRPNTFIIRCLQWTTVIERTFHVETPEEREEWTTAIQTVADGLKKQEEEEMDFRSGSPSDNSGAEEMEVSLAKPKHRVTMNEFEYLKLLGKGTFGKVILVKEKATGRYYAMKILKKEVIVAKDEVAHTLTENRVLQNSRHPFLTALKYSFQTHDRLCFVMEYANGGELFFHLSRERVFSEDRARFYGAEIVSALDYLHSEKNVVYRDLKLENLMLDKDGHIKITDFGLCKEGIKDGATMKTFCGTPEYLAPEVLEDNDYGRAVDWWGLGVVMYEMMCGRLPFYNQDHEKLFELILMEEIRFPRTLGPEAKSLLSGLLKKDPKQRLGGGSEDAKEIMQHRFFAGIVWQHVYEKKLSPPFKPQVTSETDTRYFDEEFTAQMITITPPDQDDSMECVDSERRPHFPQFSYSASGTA

[3] = target: T1, RAC-alpha serine/threonine-protein kinase; assay: Inhibition of Akt1 in human AN3CA cells assessed as phosphorylation of Akt at S473 after 2 hrs by Western Blot analysis; assay type: cell-based, AN3-CA
[4] = target: T2, RAC-beta serine/threonine-protein kinase (Homo sapiens, UniProt P31751); assay: Inhibition of Akt2 (1 to 481) expressed in Sf9 cells using biotin-GRPRTSSFAEG as substrate after 20 mins by Alpha-screen assay
T2 sequence (P31751 whole entry): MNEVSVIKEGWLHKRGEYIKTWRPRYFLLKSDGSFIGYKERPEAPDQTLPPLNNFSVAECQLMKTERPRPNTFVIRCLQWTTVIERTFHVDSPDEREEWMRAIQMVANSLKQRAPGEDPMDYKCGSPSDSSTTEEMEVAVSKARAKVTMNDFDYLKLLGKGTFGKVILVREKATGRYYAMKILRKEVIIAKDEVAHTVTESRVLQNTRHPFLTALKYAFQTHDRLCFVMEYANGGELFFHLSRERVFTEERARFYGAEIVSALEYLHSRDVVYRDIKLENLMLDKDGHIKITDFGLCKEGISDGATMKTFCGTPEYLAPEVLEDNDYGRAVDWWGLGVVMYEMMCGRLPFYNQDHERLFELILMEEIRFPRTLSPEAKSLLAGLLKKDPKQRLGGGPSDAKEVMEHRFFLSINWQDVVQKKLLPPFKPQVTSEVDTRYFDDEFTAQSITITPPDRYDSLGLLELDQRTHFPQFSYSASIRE

[5] = target: T3, RAC-gamma serine/threonine-protein kinase (Homo sapiens, UniProt Q9Y243); assay: Binding affinity to Akt3 (1 to 479) expressed in Sf9 cells assessed as change in melting temperature at 15 uM
T3 sequence (Q9Y243 whole entry): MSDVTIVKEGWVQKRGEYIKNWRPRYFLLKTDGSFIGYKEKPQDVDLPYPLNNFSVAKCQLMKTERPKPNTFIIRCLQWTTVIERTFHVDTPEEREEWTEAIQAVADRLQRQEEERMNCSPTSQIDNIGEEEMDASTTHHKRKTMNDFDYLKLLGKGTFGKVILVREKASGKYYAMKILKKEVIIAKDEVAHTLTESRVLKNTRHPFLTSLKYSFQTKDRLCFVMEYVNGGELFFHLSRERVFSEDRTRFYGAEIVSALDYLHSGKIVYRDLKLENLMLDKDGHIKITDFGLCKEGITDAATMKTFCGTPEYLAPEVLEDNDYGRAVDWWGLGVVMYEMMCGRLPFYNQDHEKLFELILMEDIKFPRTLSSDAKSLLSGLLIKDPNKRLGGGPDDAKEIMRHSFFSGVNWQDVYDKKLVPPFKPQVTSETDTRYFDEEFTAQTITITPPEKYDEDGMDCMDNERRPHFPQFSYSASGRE

[6] = target: T1, RAC-alpha serine/threonine-protein kinase; assay: Inhibition of Akt1 in human A2780 cells assessed as phosphorylation PRAS40 at T246 after 2 hrs by Western Blot analysis; assay type: cell-based
[7] = target: T1, RAC-alpha serine/threonine-protein kinase; assay: Inhibition of Akt 1 in human AN3CA cells assessed as phosphorylation of Akt at T308 after 2 hrs by Western Blot analysis; assay type: cell-based, AN3-CA
[8] = tested on: A2780; assay: Antiproliferative activity against human A2780 cells after 72 hrs by MTS assay; assay type: functional, cell-based; conditions: A2780, 72 h
[9] = target: T1, RAC-alpha serine/threonine-protein kinase; assay: Inhibition of Akt1 in human AN3CA cells assessed as phosphorylation PRAS40 at T246 after 2 hrs by Western Blot analysis; assay type: cell-based, AN3-CA
[10] = target: T1, RAC-alpha serine/threonine-protein kinase; conditions: Sf9
[11] = target: T1, RAC-alpha serine/threonine-protein kinase; assay: Inhibition of Akt1 (1 to 480) expressed in Sf9 cells using biotin-GRPRTSSFAEG as substrate after 20 mins by Alpha-screen assay
[12] = target: T1, RAC-alpha serine/threonine-protein kinase; assay: Inhibition of Akt 1 in human A2780 cells assessed as phosphorylation of Akt at T308 after 2 hrs by Western Blot analysis; assay type: cell-based
[13] = target: T3, RAC-gamma serine/threonine-protein kinase; assay: Inhibition of Akt3 (1 to 479) expressed in Sf9 cells using biotin-GRPRTSSFAEG as substrate after 20 mins by Alpha-screen assay
[14] = target: T2, RAC-beta serine/threonine-protein kinase; assay: Binding affinity to Akt2 (1 to 481) expressed in Sf9 cells assessed as change in melting temperature at 15 uM
[15] = target: T1, RAC-alpha serine/threonine-protein kinase; assay: Inhibition of Akt1 (1 to 480) expressed in Sf9 cells by indirect affinity mass spectrometry assay
[16] = target: T1, RAC-alpha serine/threonine-protein kinase; conditions: Sf9; remark: listed apart in the source
Description: Binding affinity to Akt1 (144 to 480) expressed in Sf9 cells assessed as change in melting temperature at 15 uM

[17] = target: T1, RAC-alpha serine/threonine-protein kinase; conditions: Sf9; remark: listed apart in the source
Description: Binding affinity to Akt1 (1 to 480) expressed in Sf9 cells assessed as fluorescence quenching by Trp fluorescence assay

[18] = target: T1, RAC-alpha serine/threonine-protein kinase; conditions: Sf9; remark: listed apart in the source
Description: Binding affinity to Akt1 (1 to 480) expressed in Sf9 cells assessed as change in melting temperature at 15 uM

[19] = target: T1, RAC-alpha serine/threonine-protein kinase; conditions: Sf9; remark: listed apart in the source
Description: Binding affinity to Akt1 (144 to 480) expressed in Sf9 cells assessed as fluorescence quenching by Trp fluorescence assay

Structure (SMILES): CC(=O)Nc1cccc(-c2ccc3nc(-c4cccnc4N)n(-c4ccc(CNC(=O)c5ccccc5)cc4)c3n2)c1
- pIC50 [1]: 5.82
- pIC50 [2]: 6.89
- pIC50 [3]: 6.96
- pIC50 [4]: 7.33
- ΔTm [5]: 2.5 °C
- pIC50 [6]: 6.04
- pIC50 [7]: 6.77
- pIC50 [8]: 5.80
- pIC50 [9]: 6.08
- ΔTm [10]: 12.8 °C
- pIC50 [11]: 7.82
- pIC50 [12]: 6.85
- pIC50 [13]: 6.77
- ΔTm [14]: 6.7 °C

Structure (SMILES): CC(=O)NCc1ccc(-n2c(-c3cccnc3N)nc3cccnc32)cc1
- ΔTm [10]: 2.3 °C
- pIC50 [11]: 6.09

Structure (SMILES): CC(C)(C)c1ccc(-n2c(-c3cccnc3N)nc3cccnc32)cc1
- ΔTm [10]: 1.9 °C

Structure (SMILES): Nc1ncccc1-c1nc2cc(-c3cccnc3)cnc2n1-c1ccc(CNC(=O)c2cccc(F)c2)cc1
- pIC50 [1]: 4.89
- pIC50 [2]: 7.27
- pIC50 [3]: 7.34
- pIC50 [4]: 7.57
- ΔTm [5]: 1.5 °C
- pIC50 [6]: 6.24
- pIC50 [7]: 7.31
- pIC50 [8]: 4.72
- pIC50 [9]: 6.09
- ΔTm [10]: 9.4 °C
- pIC50 [11]: 8.28
- pIC50 [12]: 6.70
- ΔTm [14]: 5.4 °C

Structure (SMILES): Nc1ncccc1-c1nc2ccc(-c3cccnc3)nc2n1-c1ccc(CNC(=O)c2cccc(F)c2)cc1
- pIC50 [1]: 5.00
- pIC50 [2]: 6.72
- pIC50 [3]: 7.02
- pIC50 [4]: 7.10
- ΔTm [5]: 1.6 °C
- pIC50 [6]: 5.89
- pIC50 [7]: 6.47
- pIC50 [8]: 5.00
- pIC50 [9]: 5.68
- ΔTm [10]: 11.1 °C
- pIC50 [11]: 7.33
- pIC50 [12]: 6.16
- pIC50 [13]: 6.18
- ΔTm [14]: 5.7 °C

Structure (SMILES): Nc1ncccc1-c1nc2cc(C3CCCC3)cnc2n1-c1ccc(CNC(=O)c2ccccc2)cc1
- pIC50 [1]: 4.48
- pIC50 [3]: 5.43
- pIC50 [4]: 6.10
- deltaTm [5]: inactive
- pIC50 [6]: 5.68
- pIC50 [7]: 5.03
- pIC50 [8]: 4.19
- pIC50 [9]: < 5.00
- ΔTm [10]: 6 °C
- pIC50 [11]: 6.96
- pIC50 [12]: 6.68
- pIC50 [15]: 4.92
- pIC50 [13]: < 4.00
- ΔTm [14]: 3.3 °C

Structure (SMILES): Nc1ncccc1-c1nc2ccc(-c3cccnc3)nc2n1-c1ccc(CC(=O)Nc2ccccc2)cc1
- pIC50 [1]: 5.06
- pIC50 [2]: 7.19
- pIC50 [3]: 7.16
- pIC50 [4]: 7.60
- ΔTm [5]: 1.8 °C
- pIC50 [6]: 6.32
- pIC50 [7]: 7.29
- pIC50 [8]: 5.03
- pIC50 [9]: 5.60
- ΔTm [10]: 10.8 °C
- pIC50 [11]: 7.30
- pIC50 [12]: 7.26
- pIC50 [13]: 6.41
- ΔTm [14]: 5.1 °C

Structure (SMILES): Nc1ccc(-n2c(-c3cccnc3N)nc3cccnc32)cc1
- ΔTm [10]: 4.1 °C
- pIC50 [11]: 6.13

Structure (SMILES): COc1ccccc1Cn1c(-c2cccnc2N)nc2cccnc21
- deltaTm [10]: inactive
- pIC50 [11]: 4.24

Structure (SMILES): CC(=O)Nc1ccc(-n2c(-c3cccnc3N)nc3cccnc32)cc1
- ΔTm [10]: 3.7 °C
- pIC50 [11]: 5.89

Structure (SMILES): Nc1ncccc1-c1nc2ccc(-c3cccnc3)nc2n1-c1ccc(CNC(=O)c2ccccc2)cc1
- pIC50 [1]: 4.89
- pIC50 [2]: 7.47
- pIC50 [3]: 5.85
- pIC50 [4]: 7.49
- ΔTm [5]: 1 °C
- pIC50 [6]: 6.13
- pIC50 [7]: 5.38
- pIC50 [8]: 4.64
- pIC50 [9]: 5.49
- ΔTm [10]: 9.7 °C
- pIC50 [12]: 7.17
- pIC50 [13]: 6.43
- ΔTm [14]: 4 °C

Structure (SMILES): CC(C)(C)c1cccc(-n2c(-c3cccnc3N)nc3cccnc32)c1
- deltaTm [10]: inactive
- pIC50 [11]: < 3.52

Structure (SMILES): Cc1n[nH]c2ccc(-c3cncc(OC[C@@H](N)Cc4ccccc4)c3)cc12
- ΔTm [16]: 1.3 °C
- deltaTm [17]: inactive
- deltaTm [18]: inactive
- ΔTm [19]: 2.12 °C

Structure (SMILES): COc1ccccc1Cn1c(-c2cccnc2N)nc2cc(Br)cnc21
- deltaTm [10]: inactive
- pIC50 [11]: < 3.52

Structure (SMILES): Nc1ncccc1-c1nc2cc(Br)cnc2n1-c1ccc(CNC(=O)c2ccccc2)cc1
- pIC50 [1]: 4.22
- pIC50 [2]: > 7.92
- pIC50 [3]: 5.60
- pIC50 [4]: 6.89
- ΔTm [5]: 1 °C
- pIC50 [6]: 5.51
- pIC50 [7]: < 5.00
- pIC50 [8]: 4.19
- pIC50 [9]: < 5.00
- ΔTm [10]: 8.1 °C
- pIC50 [11]: 7.57
- pIC50 [12]: 6.77
- pIC50 [13]: < 5.00
- ΔTm [14]: 3 °C

Structure (SMILES): Nc1ncccc1-c1nc2ccc(-c3ccccc3)nc2n1-c1ccc(CNC(=O)c2ccccc2)cc1
- pIC50 [1]: 5.26
- pIC50 [2]: 7.17
- pIC50 [3]: < 5.00
- pIC50 [4]: 7.46
- ΔTm [5]: 1.8 °C
- pIC50 [6]: 6.39
- pIC50 [7]: < 5.00
- pIC50 [8]: 5.02
- pIC50 [9]: < 5.00
- ΔTm [10]: 11 °C
- pIC50 [11]: 7.62
- pIC50 [12]: 6.74
- pIC50 [13]: 6.41
- ΔTm [14]: 6.4 °C

Structure (SMILES): COc1ccccc1Cn1c(-c2ccncc2)nc2cc(Br)cnc21
- deltaTm [10]: inactive
- pIC50 [11]: < 3.52
- pIC50 [15]: 5.23

Structure (SMILES): CC(C)(C)c1ccc(-n2c(-c3cccnc3)nc3cccnc32)cc1
- deltaTm [10]: inactive
- pIC50 [11]: 3.73

Structure (SMILES): CC(C)(C)c1ccc(-n2c(-c3cccnc3N)nc3cc(Br)cnc32)cc1
- ΔTm [10]: 0.9 °C
- pIC50 [11]: < 3.52

Structure (SMILES): CC(=O)Nc1cccc(-c2ccc3nc(-c4cccnc4N)n(-c4ccc(CC(=O)Nc5cccc(F)c5)cc4)c3n2)c1
- pIC50 [1]: 5.77
- pIC50 [2]: 6.92
- pIC50 [3]: 7.05
- pIC50 [4]: 7.62
- ΔTm [5]: 1.5 °C
- pIC50 [6]: 6.85
- pIC50 [7]: 6.59
- pIC50 [8]: 5.48
- pIC50 [9]: 5.82
- ΔTm [10]: 11.1 °C
- pIC50 [11]: 7.77
- pIC50 [12]: 7.82
- pIC50 [13]: 5.60
- ΔTm [14]: 6.7 °C

Structure (SMILES): Nc1ncccc1-c1nc2cccnc2n1-c1ccc(CNCc2ccccc2)cc1
- ΔTm [10]: 4.9 °C
- pIC50 [11]: 6.59

Structure (SMILES): Nc1ncccc1-c1nc2cc(-c3ccccc3)cnc2n1-c1ccc(CNC(=O)c2ccccc2)cc1
- pIC50 [1]: < 4.00
- pIC50 [2]: 6.48
- pIC50 [3]: 6.80
- pIC50 [4]: 4.29
- deltaTm [5]: inactive
- pIC50 [6]: 5.74
- pIC50 [7]: 5.96
- pIC50 [8]: < 4.00
- pIC50 [9]: 6.01
- ΔTm [10]: 5.61 °C
- pIC50 [11]: 7.48
- pIC50 [12]: 6.17
- pIC50 [13]: < 4.00
- ΔTm [14]: 1.2 °C

Structure (SMILES): Nc1ncccc1-c1nc2cccnc2n1-c1ccc(CNC(=O)Cc2ccccc2)cc1
- ΔTm [10]: 4.7 °C

Structure (SMILES): CC(C)(C)c1ccc(-n2c(-c3ccncc3)nc3cccnc32)cc1
- deltaTm [10]: inactive
- pIC50 [11]: < 3.52

Structure (SMILES): Nc1ncccc1-c1nc2cccnc2n1-c1cccc(CNC(=O)c2ccccc2)c1
- deltaTm [10]: inactive
- pIC50 [11]: 4.89

Structure (SMILES): Nc1ncccc1-c1nc2cccnc2n1-c1ccc(NC(=O)c2ccccc2)cc1
- ΔTm [10]: 7.3 °C
- pIC50 [11]: 7.85

Structure (SMILES): NCc1ccc(-n2c(-c3cccnc3)nc3cccnc32)cc1
- deltaTm [10]: inactive
- pIC50 [11]: 5.06
